Data taken from patent US20050026933A1, “Use of a combination of an epidermal growth factor receptor kinase inhibitor and cytotoxic agents for treatment and inhibition of cancer” (Wyeth Holdings Corporation, priority 2003, published 2005).

What was measured:
[1] = test system: LoVo colon carcinoma cells; assay: LoVo colon carcinoma xenograft in athymic nu/nu mice; type: in vivo, mouse xenograft of human tumor cells; conditions: 5-FU study LoVo, EKB-569 20 mg/kg PO days 1-20, 5-FU 40 mg/kg IP days 1, 5, 9, 13
Procedure: (§1) In all of the experiments, athymic nu/nu female mice (Charles River Laboratories) were injected SC (subcutaneously) with either 7×10^6 or 1×10^7 LoVo colon carcinoma cells or 5×10^6 GEO colon carcinoma cells. When tumors attained a mass of between 80 and 120 mg (Day 0), animals were randomized into treatment groups each containing between 5 and 20 animals, (dependent upon the experiment). Mice were treated orally (PO) with EKB-569 or vehicle control for 15 to 20 days, depending upon the experiment. EKB-569 was formulated in 0.5% Methocel, 0.4% Tween 80. Cytotoxic agents, (paclitaxel, 5-FU and cisplatin), were given either by […] (IP) or intravenous (IV) administration on either days 1, 5 and 9 or on days 1, 5, 9 and 13, depending upon the experiment. Tumor mass ([Length×Width^2]/2) was determined every seven days post staging for up to 35 days. The relative tumor growth, (Mean tumor mass on day measured divided by the mean tumor mass on day zero), and the percent Tumor/Control, (% T/C), was then calculated for each treatment group for as long as the control group remained. The % T/C is defined as the Mean Relative Tumor Growth of the Treated Group divided by the Mean Relative Tumor Growth of Vehicle Control Group multiplied by 100. The data was analyzed via Student's one-tailed t-test. A p-value≦0.05 indicates a statistically significant reduction in relative tumor growth of treated group compared with the vehicle control group or drug treated group.
The activity of EKB-569 in combination with paclitaxel was assessed using the human colon carcinoma lines LoVo and GEO. In the LoVo experiment, 20 mg/kg EKB-569 was administered PO for 20 consecutive days. Twenty mg/kg paclitaxel prepared in 2% cremophor el and 2% ethanol was administered IV on days 1, 5, 9 and 13.
(§2) The activity of EKB-569 in combination with 5-FU was assessed in LoVo and GEO xenografts. In the LoVo experiment, 20 mg/kg EKB-569 was administered for 20 consecutive days while 40 mg/kg 5-FU was administered IP on days 1, 5, 9 and 13. In the GEO experiment, 80 mg/kg EKB-569 was administered PO for 15 consecutive days while 40 mg/kg 5-FU was administered IP on days 1, 5, 9 and 13. […] At all time points, tumor size was smaller in the combination group compared with the single agent groups in these experiments.
The activity of EKB-569 in combination with cisplatin was assessed in LoVo and GEO xenografts. In the LoVo study, 20 mg/kg EKB-569 was administered PO for 20 consecutive days while 3 mg/kg cisplatin was administered IP on days 1, 5 and 9. In the GEO experiment, 80 mg/kg EKB-569 was administered PO for 15 consecutive days while 3 mg/kg cisplatin was administered I P on days 1, 5, 9 and 13. In both these experiments, combination therapy gave statistically significant, (p≦0.05), tumor growth inhibition than either drug alone at 3 out of 4 time points examined.

[2] = test system: GEO colon carcinoma cells; assay: GEO colon carcinoma xenograft in athymic nu/nu mice; type: in vivo, human; conditions: for RTG (Relative Tumor Growth): EKB-569 80 mg/kg PO, paclitaxel 25 mg/kg IV
Procedure: as §1
In the experiment of Table 1 (GEO), 80 mg/kg EKB-569 was administered PO for 15 consecutive days while 25 mg/kg paclitaxel was administered IV on days 1, 5, 9 and 13 (Table 1). The results obtained in this study were identical to that in the LoVo study except that there was up to 85% tumor growth inhibition seen in the group receiving combination therapy.
as §2, with “experiments. […]” for “experiments.”

[3] = 5-FU study GEO, Day 8, EKB-569 80 mg/kg PO days 1-15, 5-FU 40 mg/kg IP days 1, 5, 9, 13
[4] = 5-FU study GEO, Day 14, EKB-569 80 mg/kg PO days 1-15, 5-FU 40 mg/kg IP days 1, 5, 9, 13
[5] = 5-FU study GEO, Day 21, EKB-569 80 mg/kg PO days 1-15, 5-FU 40 mg/kg IP days 1, 5, 9, 13
[6] = 5-FU study GEO, Day 28, EKB-569 80 mg/kg PO days 1-15, 5-FU 40 mg/kg IP days 1, 5, 9, 13
[7] = paclitaxel study, Day 6, EKB-569 80 mg/kg PO days 1-15, paclitaxel 25 mg/kg IV days 1, 5, 9, 13
[8] = paclitaxel study, Day 15, EKB-569 80 mg/kg PO days 1-15, paclitaxel 25 mg/kg IV days 1, 5, 9, 13

SMILES | % T/C ([1]; Day 7) [%] | % T/C ([1]; Day 14) [%] | % T/C ([1]; Day 21) [%] | % T/C ([1]; Day 29) [%] | % T/C [2, 3] [%] | % T/C [2, 4] [%] | % T/C [2, 5] [%] | % T/C [2, 6] [%] | % T/C [2, 7] [%] | RTG (Relative Tumor Growth) ([2]; paclitaxel study, Day 6) | % T/C [2, 8] [%] | RTG (Relative Tumor Growth) ([2]; paclitaxel study, Day 15) | RTG (Relative Tumor Growth) ([2]; paclitaxel study, Day 21) | RTG (Relative Tumor Growth) ([2]; paclitaxel study, Day 28)
O=c1[nH]cc(F)c(=O)[nH]1 [5-FU, 5-Fluorouracil] | 59 | 63 | 85 | 77 | 58 | 47 | 50 | 60 | – | – | – | – | – | –
CCOc1cc2ncc(C#N)c(Nc3ccc(F)c(Cl)c3)c2cc1NC(=O)C=CCN(C)C [EKB-569, 4-dimethylamino-but-2-enoic acid [4-(3-chloro-4-fluoro-phenylamino)-3-cyano-7-ethoxy-quinolin-6-yl]-amide] | 84 | 67 | 77 | 95 | 55 | 54 | 81 | 95 | 51 | 1.78 | 53 | 3.33 | 5.19 | 5.78
CC(=O)O[C@H]1C(=O)[C@@]2(C)[C@H]([C@H](OC(=O)c3ccccc3)[C@]3(O)C[C@H](OC(=O)[C@H](O)[C@@H](NC(=O)c4ccccc4)c4ccccc4)C(C)=C1C3(C)C)[C@]1(OC(C)=O)CO[C@@H]1C[C@@H]2O [Paclitaxel, paclitaxel] | – | – | – | – | – | – | – | – | 46 | 1.63 | 43 | 2.69 | 2.24 | 2.70
